According to ChEMBL document CHEMBL5329177, “De novo design of a stapled peptide targeting SARS-CoV-2 spike protein receptor-binding domain” (RSC Med Chem, 2023):
Starred links: 1 amine or outer side, 2 acyl side, 3 side chain; linkers in the order of their positions; H or OH if unused. Positions of bridges follow the written chain, without caps; N, C: chain ends. Non-standard residues stand in square brackets, D forms with d. Residues, ends and D or L forms follow the SMILES beside them. X1 = C[C@@](CC=[*:3])(N[*:1])C(=O)[*:2]

Test system: Vero C1008
Test: Cytotoxicity against African green monkey Vero E6 cells assessed as inhibition of cell growth measured after 48 hrs by MTT assay
Assay type: toxicity, cell-based
Conditions: chlorocebus sabaeus, vero c1008, 48 h, dose 0.05-50 µM

SMILES: CSCC[C@@H]1NC(=O)[C@H](CC(N)=O)NC(=O)[C@@H]2CC(=O)NCCCC[C@H](NC(=O)[C@H](Cc3c[nH]c4ccccc34)NC(=O)[C@@H](NC(=O)[C@H](CCCCN)NC(=O)[C@H](Cc3ccc(O)cc3)NC(=O)[C@H](CC(C)C)NC(=O)[C@H](Cc3c[nH]c4ccccc34)NC(=O)[C@H](CCC(=O)O)NC(=O)[C@@H](NC(=O)CNC(C)=O)[C@@H](C)O)C(C)C)C(=O)N[C@@H](C)C(=O)N[C@@H](Cc3ccccc3)C(=O)N[C@@](C)(C/C=C/C[C@@](C)(C(=O)O)NC1=O)C(=O)N2 (Ac-GTEWLYKVWKAF[X1]DNM[X1]-OH; lactam 10-14; staple (E) 13-17)
- Activity: Dose-Dependent Effect
